The values that follow come from patent publication US20130184227A1, “Cytochrome P450 2C9 Inhibitors” (priority 2004, published 2013).

For this data set, the system named is CYP2C9. In words: in vitro. Particulars: Sprague-Dawley, rat, microsomes.
[1] abbreviates: pH 7.4, % inhibition of CYP2C9 activity.
Where [2] appears, read: pH 7.4, % inhibition of CYP2C9 activity, test article 1 μM, tolbutamide 1 mM, rat liver microsomes.
[3] abbreviates: pH 7.4, % inhibition of CYP2C9 activity, test article 10 μM, tolbutamide 1 mM, rat liver microsomes.
Setting [4] is: pH 7.4, % inhibition of CYP2C9 activity, test article 100 μM, tolbutamide 1 mM, rat liver microsomes.

By inhibition is commonly meant the change of the read-out against control, counted positive when it falls.

`CC(=O)OCCCc1ccccc1` [3-Phenylpropyl Acetate]: under setting [1], the inhibition at 7.5 min, 1 μM was determined as 36.6% and the inhibition at 7.5 min, 100 μM came out at 42.6%.

As for `O=C1c2c(O)cc(O)cc2O[C@H](c2ccc(O)c(O)c2)[C@H]1O` [(+)-Taxifolin], the inhibition at 7.5 min, 1 μM under setting [2] is -1.29%. Also, under setting [3], the inhibition at 7.5 min, 10 μM worked out at 31.2%. Besides, under setting [4], the inhibition at 7.5 min, 100 μM worked out at 50.5%.

Regarding `O=c1cc(-c2ccccc2)oc2cc(O)c(O)c(O)c12` [Baicalein], under setting [1], the inhibition at 7.5 min, 2.5 μM came out at 1.76% and the inhibition at 7.5 min, 25 μM came out at 5.06%.

As for `O=c1cc(-c2ccccc2)oc2cc(O)cc(O)c12` [Chrysin], where the note is “pH 7.4”, the inhibition at 7.5 min, 1 μM was found to be 6.86%; the inhibition at 7.5 min, 10 μM turned out to be 60.6%; the inhibition at 7.5 min, 50 μM came to 75.1%.

Turning to `O=c1c(-c2ccc(O)cc2)coc2cc(O)ccc12` [Daidzein], under setting [1], the inhibition at 7.5 min, 1 μM was 1.35%; the inhibition at 7.5 min, 10 μM was determined as 13.4%; the inhibition at 7.5 min, 25 μM turned out to be 15.7%.

`O=c1c(-c2ccc(O)cc2)coc2cc(O[C@@H]3O[C@H](CO)[C@@H](O)[C@H](O)[C@H]3O)ccc12` [Daidzin]: for the setting “pH 7.4”, the inhibition at 7.5 min, 1 μM is 0.95%; the inhibition at 7.5 min, 10 μM was -2.46%; the inhibition at 7.5 min, 25 μM was -1.16%; the inhibition at 7.5 min, 100 μM is -1.33%.

`COc1ccc(-c2cc(=O)c3c(O)cc(O[C@@H]4O[C@H](CO[C@@H]5O[C@@H](C)[C@H](O)[C@@H](O)[C@H]5O)[C@@H](O)[C@H](O)[C@H]4O)cc3o2)cc1O` [Diosmin]: under setting [1], the inhibition at 7.5 min, 1 μM was 1.51% and the inhibition at 7.5 min, 10 μM is 4.7%.

Regarding `CCCCCCCCCCCC1=C(O)C(=O)C=C(O)C1=O` [Embelin], under setting [1], the inhibition at 7.5 min, 1 μM came out at 24.7%; the inhibition at 7.5 min, 10 μM turned out to be 11.2%; the inhibition at 7.5 min, 50 μM stood at 18%.

Take `COc1ccc(-c2coc3cc(O)ccc3c2=O)cc1` [Formononetin]: under setting [1], the inhibition at 7.5 min, 1 μM turned out to be 23.3%; the inhibition at 7.5 min, 10 μM was 30.6%; the inhibition at 7.5 min, 50 μM turned out to be 57.9%.

With `O=c1c(-c2ccc(O)cc2)coc2cc(O)cc(O)c12` [Genistein], the inhibition at 7.5 min, 1 μM reads like this: under setting [2], 49.6%; (pH 7.4, % inhibition of tolbutamide metabolism in microsomes, 1 μM, reaction time 7.5 minute, n = 3) 49.6%; (pH 7.4, % inhibition, 1 μM (low concentration)) 49.6%. Also, the inhibition at 7.5 min, 10 μM by setting is: under setting [3], 67.7%; (pH 7.4, % inhibition of tolbutamide metabolism in microsomes, 10 Mm, reaction time 7.5 minute, n = 3) 67.7%; (pH 7.4, % inhibition, 10 μM (mid concentration)) 67.7%. Besides, the inhibition at 7.5 min, 100 μM under setting [4] stood at 82.7%; the inhibition at 7.5 min, 100 μM (pH 7.4, % inhibition of tolbutamide metabolism in microsomes, 100 μM, reaction time 7.5 minute, n = 3) came to 82.7%; the inhibition at 7.5 min, 100 μM (pH 7.4, % inhibition, 100 μM (high concentration)) was 82.7%.

In the case of `COc1cc(O)c2c(=O)cc(-c3ccc(O)cc3)oc2c1` [Genkwanin], under setting [1], the inhibition at 7.5 min, 1 μM was determined as 30.9% and the inhibition at 7.5 min, 10 μM turned out to be 37.4%.

Regarding `COc1ccc([C@@H]2CC(=O)c3c(O)cc(O)cc3O2)cc1O` [Hesperetin], under setting [1], the inhibition at 7.5 min, 1 μM was -3.58% and the inhibition at 7.5 min, 10 μM is 29.1%.

On to `COc1cc(-c2oc3cc(O)cc(O)c3c(=O)c2O)ccc1O` [Isorhamnetin], for which, where the note is “pH 7.4”, the inhibition at 7.5 min, 1 μM worked out at 19.6%; the inhibition at 7.5 min, 10 μM stood at 61.5%; the inhibition at 7.5 min, 75 μM was 65.7%.

On to `O=C1C[C@@H](c2ccc(O[C@@H]3O[C@H](CO)[C@@H](O)[C@H](O)[C@H]3O)cc2)Oc2cc(O)ccc21` [Liquiritin], for which, under setting [1], the inhibition at 7.5 min, 1 μM amounted to 18.1%; the inhibition at 7.5 min, 10 μM worked out at 18.4%; the inhibition at 7.5 min, 100 μM stood at 24.8%.

As for `O=c1c(O)c(-c2ccc(O)cc2O)oc2cc(O)cc(O)c12` [Morin], under setting [1], the inhibition at 7.5 min, 1 μM stood at 14.3%; the inhibition at 7.5 min, 10 μM was 11.6%; the inhibition at 7.5 min, 100 μM worked out at 51%.

As for `CC(Cc1ccc(O)c(O)c1)C(C)Cc1ccc(O)c(O)c1` (stereo not shown) [Nordihydroguaiaretic acid], under setting [1], the inhibition at 7.5 min, 1 μM is -16.1%; the inhibition at 7.5 min, 10 μM worked out at 9.76%; the inhibition at 7.5 min, 100 μM was 81.2%.

Take `CC1(C)CC[C@]2(C(=O)O)CC[C@]3(C)C(=CC[C@@H]4[C@@]5(C)CC[C@H](O)C(C)(C)[C@@H]5CC[C@]43C)[C@@H]2C1` [Oleanolic acid]: the inhibition at 7.5 min, 1 μM under setting [2] was 16.8%. Further, the inhibition at 7.5 min, 10 μM under setting [3] stood at 42.4%. Further, the inhibition at 7.5 min, 100 μM under setting [4] was found to be 41.1%.

For the compound `O=C(CCc1ccc(O)cc1)c1c(O)cc(O)cc1O` [Phloretin], under setting [1], the inhibition at 7.5 min, 1 μM came to 23.8%; the inhibition at 7.5 min, 10 μM came out at 34.4%; the inhibition at 7.5 min, 100 μM came out at 95.1%.

With `COc1ccc([C@@H]2CC(=O)c3c(O)cc(O[C@@H]4O[C@H](CO)[C@@H](O)[C@H](O)[C@H]4O[C@@H]4O[C@@H](C)[C@H](O)[C@@H](O)[C@H]4O)cc3O2)cc1` [Poncirin], under setting [1], the inhibition at 7.5 min, 1 μM is 7.76%; the inhibition at 7.5 min, 10 μM amounted to 16.3%; the inhibition at 7.5 min, 100 μM was 15%.

On to `O=c1c(-c2ccc(O)cc2)coc2c([C@@H]3O[C@H](CO)[C@@H](O)[C@H](O)[C@H]3O)c(O)ccc12` [Puerarin], for which, under setting [1], the inhibition at 7.5 min, 1 μM amounted to 38.1%; the inhibition at 7.5 min, 10 μM was determined as 39%; the inhibition at 7.5 min, 100 μM worked out at 33.3%.

Take `C[C@@H]1O[C@@H](Oc2c(-c3ccc(O)c(O)c3)oc3cc(O)cc(O)c3c2=O)[C@H](O)[C@H](O)[C@H]1O` [Quercitrin]: for the setting “pH 7.4”, the inhibition at 7.5 min, 1 μM worked out at 24.2%; the inhibition at 7.5 min, 10 μM is 21.1%; the inhibition at 7.5 min, 100 μM stood at 13.5%.

For the compound `C[C@@H]1O[C@@H](OC[C@H]2O[C@@H](Oc3c(-c4ccc(O)c(O)c4)oc4cc(O)cc(O)c4c3=O)[C@H](O)[C@@H](O)[C@@H]2O)[C@H](O)[C@H](O)[C@H]1O` [Rutin], under setting [1], the inhibition at 7.5 min, 1 μM is -2.59%; the inhibition at 7.5 min, 10 μM is -14%; the inhibition at 7.5 min, 100 μM was -6.46%.

Turning to `C=C[C@H]1[C@H](O[C@@H]2O[C@H](CO)[C@@H](O)[C@H](O)[C@H]2O)OC=C2C(=O)OCC[C@]21O` [Swertiamarin], under setting [1], the inhibition at 7.5 min, 1 μM stood at 16.3%; the inhibition at 7.5 min, 10 μM turned out to be 16.6%; the inhibition at 7.5 min, 100 μM worked out at 18.4%.

Take `O=c1ccc2ccc(O)cc2o1` [Umbelliferone]: under setting [1], the inhibition at 7.5 min, 1 μM is -7.17%; the inhibition at 7.5 min, 10 μM is -6.64%; the inhibition at 7.5 min, 100 μM was -2.02%.

Regarding `O=c1cc(-c2ccc(O)cc2)oc2cc(O)cc(O)c12` [apigenin], under setting [1], the inhibition at 7.5 min, 2.5 μM was determined as 21.7% and the inhibition at 7.5 min, 25 μM came to 76.9%.

Take `O=C(O)[C@H]1O[C@@H](Oc2cc3oc(-c4ccccc4)cc(=O)c3c(O)c2O)[C@H](O)[C@@H](O)[C@@H]1O` [baicalin]: under setting [1], the inhibition at 7.5 min, 2.5 μM is -5.36% and the inhibition at 7.5 min, 25 μM was 7.77%.

Regarding `CC(C)[C@@H](C)/C=C/[C@@H](C)[C@H]1CC[C@H]2C3=CC=C4C[C@@H](O)CC[C@]4(C)[C@H]3CC[C@]12C` [ergosterol], under setting [1], the inhibition at 7.5 min, 1 μM worked out at 1%; the inhibition at 7.5 min, 10 μM amounted to 8.12%; the inhibition at 7.5 min, 30 μM was 3.57%.

As for `O=C1C[C@@H](c2ccc(O)c(O)c2)Oc2cc(O)cc(O)c21` [eriodictyol], under setting [1], the inhibition at 7.5 min, 1 μM was determined as 32.8%; the inhibition at 7.5 min, 10 μM is 28.6%; the inhibition at 7.5 min, 100 μM is 69.6%.

For `O=C(O)c1cc(O)c(O)c(O)c1` [gallic acid], under setting [1], the inhibition at 7.5 min, 1 μM was -3.05%; the inhibition at 7.5 min, 10 μM is -2.47%; the inhibition at 7.5 min, 100 μM is -0.97%.

In the case of `CC1(C)[C@@H](O[C@H]2O[C@H](C(=O)O)[C@@H](O)[C@H](O)[C@H]2O[C@@H]2O[C@H](C(=O)O)[C@@H](O)[C@H](O)[C@H]2O)CC[C@]2(C)[C@H]3C(=O)C=C4[C@@H]5C[C@@](C)(C(=O)O)CC[C@]5(C)CC[C@@]4(C)[C@]3(C)CC[C@@H]12` [glycyrrhizin], under setting [1], the inhibition at 7.5 min, 1 μM worked out at 5.14%; the inhibition at 7.5 min, 10 μM amounted to 2.23%; the inhibition at 7.5 min, 100 μM is 4.87%.

Take `O=c1c(O[C@@H]2O[C@H](CO)[C@@H](O)[C@H](O)[C@H]2O)c(-c2ccc(O)c(O)c2)oc2cc(O)cc(O)c12` [isoquercitrin]: under setting [1], the inhibition at 7.5 min, 1 μM was 20.9%; the inhibition at 7.5 min, 10 μM worked out at 27%; the inhibition at 7.5 min, 100 μM came out at 61.8%.

Consider `O=c1cc(-c2ccc(O)cc2)oc2cc(O)c([C@@H]3O[C@H](CO)[C@@H](O)[C@H](O)[C@H]3O)c(O)c12` [isovitexin], for which, under setting [1], the inhibition at 7.5 min, 1 μM came to 35.6%; the inhibition at 7.5 min, 10 μM was 37.4%; the inhibition at 7.5 min, 100 μM is 45.4%.

On to `O=c1c(O)c(-c2ccc(O)cc2)oc2cc(O)cc(O)c12` [kaempferol], for which, under setting [1], the inhibition at 7.5 min, 1 μM is -22.3% and the inhibition at 7.5 min, 10 μM was determined as 38.3%.

`O=c1cc(-c2ccc(O)c(O)c2)oc2cc(O)cc(O)c12` [luteolin]: under setting [1], the inhibition at 7.5 min, 1 μM was determined as 20.1%; the inhibition at 7.5 min, 10 μM stood at 37.9%; the inhibition at 7.5 min, 100 μM came to 93.2%.

In the case of `O=c1c(O)c(-c2cc(O)c(O)c(O)c2)oc2cc(O)cc(O)c12` [myricetin], under setting [1], the inhibition at 7.5 min, 1 μM is -3.19%; the inhibition at 7.5 min, 10 μM came to 10.6%; the inhibition at 7.5 min, 100 μM was 88.8%.

As to `C[C@@]12C[C@@]3(O)O[C@@H](O1)[C@]1(COC(=O)c4ccccc4)[C@H]3C[C@@]12O[C@@H]1O[C@H](CO)[C@@H](O)[C@H](O)[C@H]1O` [paeoniflorin], under setting [1], the inhibition at 7.5 min, 1 μM turned out to be 10.1%; the inhibition at 7.5 min, 10 μM was determined as 0.7%; the inhibition at 7.5 min, 100 μM was -1.77%.

`O=C(O)c1ccc(O)c(O)c1` [protocatechuic acid]: under setting [1], the inhibition at 7.5 min, 1 μM is 20.3% and the inhibition at 7.5 min, 10 μM amounted to 16.2%.
